According to patent publication US5093351A, “Substituted indole, benzofuran and benzothiophene derivatives as 5-lipoxygenase inhibitors” (Du Pont Merck Pharmaceutical Company, priority 1989, dated 1992):

Assays:
[1] = test system: arachidonic acid-induced ear edema; assay: Arachidonic acid-induced ear edema in CF1 mice, topical; format: in vivo; conditions: Mus musculus, 1 h, 100 μg/ear, topical in acetone just prior to 1 mg arachidonic acid, one hour after challenge
Experimental: This assay indicates a specific use in the treatment of skin diseases such as psoriasis. This assay also implies a reduction in leukotrienes caused by the compounds of the invention, and indicates the use of these compounds in other diseases where the production of leukotrienes is involved in the pathological process.
The assay is a modification of the procedure described by Young et al. (J. Invest. Dermatol. (1983) 80, 48). 1 mg of arachidonic acid is applied as an acetone solution to the inner surface of the pinna of CF1 mice. Test compound dissolved in acetone is applied to the ear just prior to the arachidonic acid challenge. One hour after challenge, 6 mm disks are removed from the ear with a biopsy punch, and the weight is determined. The results are determined as a percent inhibition of the swelling which occurs in the absence of the test compound.

5-lipoxygenase = biological target: T1, 5-lipoxygenase (Rattus norvegicus, UniProt P12527); assay: 5-lipoxygenase inhibition, 10,000×g supernatant from homogenized rat basophilic leukemia (RBL-1) cells; format: biochemical; conditions: RBL-1 10,000×g supernatant, pH 7.0, 5 min incubation with compound, 14C-arachidonic acid, 37° C., two minutes
T1 construct: endogenous in cells; host or cells: RBL-1 (rat basophilic leukemia) cells, 10,000×g supernatant of homogenate
T1 sequence (P12527 1-673): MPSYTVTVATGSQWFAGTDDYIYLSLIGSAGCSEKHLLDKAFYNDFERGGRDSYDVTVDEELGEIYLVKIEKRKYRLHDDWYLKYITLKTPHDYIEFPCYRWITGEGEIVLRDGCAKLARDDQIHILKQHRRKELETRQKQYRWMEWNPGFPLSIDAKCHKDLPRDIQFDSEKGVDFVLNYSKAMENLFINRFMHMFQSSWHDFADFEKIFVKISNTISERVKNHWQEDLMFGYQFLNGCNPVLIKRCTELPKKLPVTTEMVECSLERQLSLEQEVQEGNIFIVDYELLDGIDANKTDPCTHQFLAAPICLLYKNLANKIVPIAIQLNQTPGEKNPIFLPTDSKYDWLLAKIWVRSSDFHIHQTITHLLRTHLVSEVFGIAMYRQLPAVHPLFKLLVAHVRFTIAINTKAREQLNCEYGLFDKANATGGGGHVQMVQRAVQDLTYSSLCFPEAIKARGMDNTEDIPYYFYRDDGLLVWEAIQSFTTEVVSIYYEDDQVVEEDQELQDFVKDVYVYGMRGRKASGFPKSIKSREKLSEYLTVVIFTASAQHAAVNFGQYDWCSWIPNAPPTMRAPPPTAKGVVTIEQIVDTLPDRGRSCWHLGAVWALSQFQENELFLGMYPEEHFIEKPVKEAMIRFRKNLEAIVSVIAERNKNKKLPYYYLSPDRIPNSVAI
Experimental: The test method is a modification of the procedure developed by Jakschik et al. (Prostaglandins (1978) 16, 733; Biochem. Biophys. Res. Commun. (1980) 95, 103; Biochem. Biophys. Res. Commun. (1981) 102, 624).
The 10,000×g supernatant from homogenized RBL-1 cells was incubated with test compound in a pH 7.0 phosphate buffer for five minutes. ^14 C-arachidonic acid was added to initiate the reaction, which was allowed to continue at 37° C. for two minutes. The reaction was stopped by freezing in a dry ice/ethanol slurry, and the 5-lipoxygenase products were separated from the substrate on silica gel columns. The amount of individual lipoxygenase products produced was determined and the percent inhibition calculated.

Structure (SMILES): COc1ccc(Cc2ccc3c(ccn3C)c2OC(C)=O)cc1 [Example 6c]
- inhibition in vivo at 100 µg/ear [1]: 72%

Structure (SMILES): COc1ccc(Cc2ccc3c(ccn3C)c2O)cc1 [Example 1e]
- inhibition in vivo at 100 µg/ear [1]: 64%

Structure (SMILES): Oc1c(Cc2ccccc2)ccc2c1ccn2Cc1ccccc1 [Example 1d]
- inhibition in vivo at 100 µg/ear [1]: 41%
- IC50 (5-lipoxygenase): 42 nM

Structure (SMILES): Oc1c(Cc2ccccc2)ccc2occc12 [Example 1c]
- inhibition in vivo at 100 µg/ear [1]: 42%
- IC50 (5-lipoxygenase): 400 nM

Structure (SMILES): CC(=O)Oc1c(Cc2ccccc2)ccc2c1ccn2C [Example 6a, 1-Methyl-4-acetoxy-5-phenylmethylindole]
- inhibition in vivo at 100 µg/ear [1]: 72%
- IC50 (5-lipoxygenase): 420 nM

Structure (SMILES): Cn1ccc2c(O)c(Cc3ccccc3)ccc21 [Example 1a, 1-Methyl-4-hydroxy-5-phenylmethylindole]
- inhibition in vivo at 100 µg/ear [1]: 74%
- IC50 (5-lipoxygenase): 56 nM

Structure (SMILES): CC(=O)Oc1c(Cc2cccs2)ccc2c1ccn2C [Example 6b]
- inhibition in vivo at 100 µg/ear [1]: 54%

Structure (SMILES): Oc1c(Cc2ccccc2)ccc2sccc12 [Example 1b]
- inhibition in vivo at 100 µg/ear [1]: 53%
- IC50 (5-lipoxygenase): 130 nM

Structure (SMILES): Cn1ccc2c(O)c(Cc3ccc4c(c3)OCO4)ccc21 [Example 1g]
- inhibition in vivo at 100 µg/ear [1]: 54%
